# Test results reported in US12473339B2, “Acylated glucagon analogues” (Zealand Pharma A/S, priority 2013, dated 2025).
# Columns and labels:
# [1] = biological target: T1, human glucagon-like peptide 1 receptor (GLP-1R) (Homo sapiens, UniProt P43220); test: GLP-1 receptor efficacy assay (cAMP AlphaScreen, CHO cells); format: cell-based; conditions: EC50 [GLP-1R] / EC50 [Glucagon-R], human receptors in CHO-K1
# T1 construct: expressed in transfected cells
# Outline: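 Stable CHO clones expressing the human receptor, seeded 24 h before assay. Peptides applied for 15 min at room temperature in KRBH with 0.1 mM IBMX; cells lysed and cAMP quantified by AlphaScreen. EC50 and efficacy relative to glucagon or GLP-1 from curve fitting.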
# [2] = biological target: T2, endogenous GLP-1 receptors (Mus musculus, UniProt O35659); test: Agonistic activity on endogenous GLP-1 receptor (cAMP, murine insulinoma cell line); format: cell-based; conditions: intracellular cAMP, 15 minutes at 26° C.
# T2 construct: Agonistic activity of the test compounds on endogenous GLP-1 receptors; endogenous in cells
# T2 sequence (O35659 22-463): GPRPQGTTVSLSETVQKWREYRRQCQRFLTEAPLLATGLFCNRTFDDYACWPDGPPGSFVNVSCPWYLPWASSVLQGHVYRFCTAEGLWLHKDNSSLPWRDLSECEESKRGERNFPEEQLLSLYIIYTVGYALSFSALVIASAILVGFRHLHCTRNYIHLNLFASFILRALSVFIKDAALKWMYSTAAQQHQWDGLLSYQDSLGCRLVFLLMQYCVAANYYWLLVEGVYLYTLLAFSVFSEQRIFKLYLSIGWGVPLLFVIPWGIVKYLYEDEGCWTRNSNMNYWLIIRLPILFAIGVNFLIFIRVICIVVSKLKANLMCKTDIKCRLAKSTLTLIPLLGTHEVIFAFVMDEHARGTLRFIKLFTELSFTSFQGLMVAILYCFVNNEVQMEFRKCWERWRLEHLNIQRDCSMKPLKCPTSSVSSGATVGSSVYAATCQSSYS
# Procedure: Agonistic activity of the test compounds on endogenous GLP-1 receptors was determined using a murine insulinoma cell line. Intracellular cAMP was used an indicator of receptor activation.
# Cells were cultured for 24 h at a density of 10,000 cells/well in a 384-well plate. Medium was removed and 10 μL KRBH buffer (NaCl 130 mM, KCl 3.6 mM, NaH2PO4 0.5 mM, MgSO4 0.5 mM, CaCl2 1.5 mM) containing test compound or GLP-1 (at increasing concentrations from 0.1 pM to 100 nM) or solvent control (0.1% (v/v) DMSO) was added to the wells for 15 minutes at a temperature of 26° C.
# The cellular cAMP content is measured using the AlphaScreen cAMP Functional Assay Kit (Perkin Elmer). Measurement was performed using the Envision (PerkinElmer) according to manufacturer's recommendations.
# Results were converted into cAMP concentrations using a cAMP standard curve prepared in KRBH buffer containing 0.1% (v/v) DMSO. The resulting cAMP curves were plotted as absolute cAMP concentrations (nM) over log (test compound concentration) and analyzed using the curve fitting program XLfit. […]
# T1 sequence (P43220 24-463): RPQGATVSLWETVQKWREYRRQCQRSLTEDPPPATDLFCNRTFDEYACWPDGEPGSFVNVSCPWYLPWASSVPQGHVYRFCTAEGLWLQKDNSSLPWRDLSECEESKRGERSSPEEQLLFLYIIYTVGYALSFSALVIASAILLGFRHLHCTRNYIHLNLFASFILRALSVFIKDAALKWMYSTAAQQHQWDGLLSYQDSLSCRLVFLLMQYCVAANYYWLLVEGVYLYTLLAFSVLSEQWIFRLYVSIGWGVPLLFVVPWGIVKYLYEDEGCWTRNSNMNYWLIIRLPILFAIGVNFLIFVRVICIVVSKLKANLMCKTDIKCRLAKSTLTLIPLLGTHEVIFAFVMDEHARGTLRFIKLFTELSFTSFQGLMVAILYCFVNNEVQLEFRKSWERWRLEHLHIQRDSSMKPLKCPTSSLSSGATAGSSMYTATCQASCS
Ratio GLP-1/Glucagon [1],EC50 [2],Structure (SMILES)
1.81,0.6 nM,"CC(C)C[C@H](NC(=O)[C@H](CC(C)C)NC(=O)[C@H](Cc1c[nH]c2ccccc12)NC(=O)[C@H](CCC(=O)O)NC(=O)[C@@H](NC(=O)[C@H](Cc1ccccc1)NC(=O)[C@H](CC(=O)O)NC(=O)[C@H](Cc1c[nH]cn1)NC(=O)[C@H](C)NC(=O)[C@H](C)NC(=O)[C@H](CCCCNC(=O)CC[C@H](NC(=O)CCCCCCCCCCCCCCC(=O)O)C(=O)O)NC(=O)[C@H](CO)NC(=O)[C@H](CC(=O)O)NC(=O)[C@H](CC(C)C)NC(=O)[C@H](Cc1ccc(O)cc1)NC(=O)[C@H](CCCCN)NC(=O)[C@H](CO)NC(=O)[C@H](Cc1ccc(O)cc1)NC(=O)[C@H](CC(=O)O)NC(=O)[C@H](CO)NC(=O)[C@@H](NC(=O)[C@H](Cc1ccccc1)NC(=O)[C@@H](NC(=O)CNC(=O)[C@H](CCC(N)=O)NC(=O)C(C)(C)NC(=O)[C@@H](N)Cc1c[nH]cn1)[C@@H](C)O)[C@@H](C)O)C(C)C)C(=O)N[C@@H](CO)C(=O)N[C@@H](C)C(N)=O [Compound 1, H-H-Aib-QGTFTSDYSKYLDS-K([15-carboxy-pentadecanoyl]-isoGlu)-AAHDFVEWLLSA-NH2]"
0.38,0.6 nM,"CC[C@H](C)[C@H](NC(=O)[C@H](Cc1ccccc1)NC(=O)[C@H](CC(=O)O)NC(=O)[C@H](CCCCN)NC(=O)[C@H](C)NC(=O)[C@H](C)NC(=O)[C@H](CCCCNC(=O)CC[C@H](NC(=O)CCCCCCCCCCCCCCCCC(=O)O)C(=O)O)NC(=O)[C@H](CCC(=O)O)NC(=O)[C@H](CC(=O)O)NC(=O)[C@H](CC(C)C)NC(=O)[C@H](Cc1ccc(O)cc1)NC(=O)[C@H](CCCCN)NC(=O)[C@H](CO)NC(=O)[C@H](Cc1ccc(O)cc1)NC(=O)[C@H](CC(=O)O)NC(=O)[C@H](CO)NC(=O)[C@@H](NC(=O)[C@H](Cc1ccccc1)NC(=O)[C@@H](NC(=O)CNC(=O)[C@H](CCC(N)=O)NC(=O)C(C)(C)NC(=O)[C@@H](N)Cc1c[nH]cn1)[C@@H](C)O)[C@@H](C)O)C(=O)N[C@@H](CCC(=O)O)C(=O)N[C@@H](Cc1c[nH]c2ccccc12)C(=O)N[C@@H](CC(C)C)C(=O)N[C@@H](CCC(=O)O)C(=O)N[C@@H](CO)C(=O)N[C@@H](C)C(N)=O [Compound 10, H-H-Aib-QGTFTSDYSKYLDE-K([17-carboxy-heptadecanoyl]-isoGlu)-AAKDFIEWLESA-NH2]"
